Measurements reported in patent US12325694B2, “Co-crystalline form of efinaconazole and method for preparing the same” (Daebong Ls Co., Ltd., priority 2019, dated 2025).

Assay: Stability test: HPLC purity after standing in solution at different temperatures
Type: physicochemical
Conditions: Solution (10%)
Description: The stabilities of the co-crystals of efinaconazole to temperature and a solution were evaluated and compared by the following experimental method.

HPLC (%) (65 °C (oven), after 1 week): 99.55% | Related substances (%) (65 °C (oven), after 1 week): 0.45% | HPLC (%) (65 °C (oven), after 2 weeks): 99.46% | Related substances (%) (65 °C (oven), after 2 weeks): 0.54% | HPLC (%) (65 °C (oven), after 4 weeks): 98.47% | Related substances (%) (65 °C (oven), after 4 weeks): 1.53% | HPLC (%) (room temp., after 1 week): 99.73% | Related substances (%) (room temp., after 1 week): 0.27% | HPLC (%) (room temp., after 2 weeks): 99.61% | Related substances (%) (room temp., after 2 weeks): 0.39% | HPLC (%) (room temp., after 4 weeks): 99.60% | Related substances (%) (room temp., after 4 weeks): 0.40%
Structure (SMILES): C=C1CCN([C@H](C)[C@](O)(Cn2cncn2)c2ccc(F)cc2F)CC1 [Efinaconazole, efinaconazole]
